{"source": "paper PMC12454639", "about": "“Direct disassembly of α-syn preformed fibrils into α-syn monomers by an all-D-peptide” (NPJ Parkinson's Disease, 2025)", "test_system": "recombinant full-length α-syn", "assay": "De novo ThT aggregation screening assay (50 µM α-syn)", "type": "biochemical", "protocol": "The Thioflavin T (ThT) assay is commonly used for the visualization of α-syn fibrilization, since the dye ThT is able to bind to the amyloidogenic cross-β-sheet proportions of fibril structures. Recombinant α-syn was thawed on ice and centrifuged for 30 min at 21,000 × g and 4 °C. The concentration of the supernatant was determined as described previously. Lyophilized D-peptides were thawed at RT for 1 h and dissolved in 500 µl PBS pH 7.4. After centrifugation for 30 min at 21,000 × g the supernatant concentration was determined by UV–vis using the corresponding extinction coefficient at A280. All ThT assay experiments were performed at 37 °C with 15 µM ThT and 0.05% sodium azide (w/v) in PBS pH 7.4 if not otherwise stated. ThT fluorescence was monitored with bottom optics at λex = 448 nm and λem = 482 nm in a fluorescence plate reader with orbital averaging on 3 mm (Clariostar or Polarstar Optima, BMG labtech, GE). […]\nThT assay was used for different purposes. […] Lag-time and t½ were calculated as described previously. […]\nMonomeric α-syn (Supplementary Fig. 3) was incubated with or without a 3-fold molar excess of the D-peptides. […] The ThT positive aggregation was fitted with a symmetric Boltzmann fit and t ½- and lag-time were calculated accordingly. […] ThT fluorescence progression was measured in a 96-well non-binding half-area with a FLUOStar plate reader at λex = 448 nm and λem = 482 nm. […]", "note": "Square brackets hold non-standard residues; d marks the D form. Peptide text beside a SMILES is read from it."}
{"smiles": "CC[C@@H](C)[C@@H](NC(=O)[C@@H](Cc1c[nH]cn1)NC(=O)[C@@H](CCC(=O)O)NC(=O)[C@@H](CCC(N)=O)NC(=O)[C@@H](Cc1c[nH]c2ccccc12)NC(=O)[C@@H](Cc1ccc(O)cc1)NC(=O)[C@H](NC(=O)[C@@H](CCC(=O)O)NC(=O)[C@@H](Cc1c[nH]cn1)NC(=O)[C@H](NC(=O)[C@H]1CCCN1C(=O)[C@@H](CCSC)NC(=O)[C@H](N)CCCCN)[C@H](C)O)[C@H](C)O)C(=O)N[C@H](Cc1c[nH]c2ccccc12)C(=O)N[C@H](Cc1c[nH]cn1)C(=O)N[C@H](C)C(N)=O", "note": "[SVD-1] (H-[dK][dM][dP][dT][dH][dE][dT][dY][dW][dQ][dE][dH][dI][dW][dH][dA]-NH2)", "values": [{"measurement": "effect on α-syn aggregation, concentration dependency", "setting": "50 µM α-syn with 50, 150 or 250 µM D-peptide, PBS pH 7.4, n = 5", "result": "most efficient"}, {"measurement": "effect on α-syn aggregation (t½ and lag-time)", "setting": "50 µM α-syn, 3-fold molar excess peptide, PBS pH 7.4, 37 °C, shaking 300 rpm 30 s per cycle, n = 3", "result": "delayed α-syn aggregation"}]}
